Key:
Assay in all cases: Bliss excess, mean over the matrix (fraction); higher = more synergy
[1] = tested on: OS-RC-2 (Kidney Carcinoma)
In short: (§1)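 Cell lines in DMEM/F12 or RPMI with 10% FBS were plated in 1536-well plates, held 24 hours at 37°C, 5% CO2, then given two-drug dose matrices for 72 hours (DMSO typically 0.2%). Viability was read by CellTiter-Glo 2.0 luminescence and scaled as inhibition from 0 (vehicle wells) to 1 (blank wells). Combination Emax is the second-highest inhibition in the matrix; Bliss excess is observed combination effect minus expected EA + EB − EA·EB, EA and EB being single-agent effects.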

[2] = tested on: COLO-824 (Breast Carcinoma)
In short: as §1

[3] = tested on: KARPAS-422 (B-Cell Non-Hodgkin's Lymphoma)
In short: as §1

[4] = tested on: PANC-10-05 (Pancreatic Carcinoma)
In short: as §1

NCI-H2591 (Mesothelioma) = tested on: NCI-H2591 (Mesothelioma)
In short: as §1

[5] = tested on: NCI-H2066 (Squamous Cell Lung Carcinoma)
In short: as §1

FU97 (Gastric Carcinoma) = tested on: FU97 (Gastric Carcinoma)
In short: as §1

[6] = tested on: MDST8 (Colorectal Carcinoma)
In short: as §1

[7] = tested on: TT2609-C02 (Thyroid Gland Carcinoma)
In short: as §1

8-MG-BA (Glioblastoma) = tested on: 8-MG-BA (Glioblastoma)
In short: as §1

IGR-37 (Melanoma) = tested on: IGR-37 (Melanoma)
In short: as §1

[8] = tested on: NCI-H2141 (Small Cell Lung Carcinoma)
In short: as §1

[9] = tested on: HCC1954 (Breast Carcinoma)
In short: as §1

[10] = tested on: CAPAN-2 (Pancreatic Carcinoma)
In short: as §1

[11] = tested on: ONS-76 (Other Solid Carcinomas)
In short: as §1

[12] = tested on: SISO (Cervical Carcinoma)
In short: as §1

[13] = tested on: JSC-1 (B-Cell Non-Hodgkin's Lymphoma)
In short: as §1

[14] = tested on: NCI-H1693 (Lung Adenocarcinoma)
In short: as §1

GI-ME-N (Neuroblastoma) = tested on: GI-ME-N (Neuroblastoma)
In short: as §1

Hs-445 (Non-Cancerous) = tested on: Hs-445 (Non-Cancerous)
In short: as §1

## C=CCn1c(=O)c2cnc(Nc3ccc(N4CCN(C)CC4)cc3)nc2n1-c1cccc(C(C)(C)O)n1 [AZD1775] + O=C(c1cc(Cc2n[nH]c(=O)c3ccccc23)ccc1F)N1CCN(C(=O)C2CC2)CC1 [Olaparib] (first compound max 1 µM, partner max 10 µM)
[1]
  Bliss excess: -0.0981
[2]
  Bliss excess: -0.0423
[3]
  Bliss excess: -0.0648
[4]
  Bliss excess: -0.0871
NCI-H2591 (Mesothelioma)
  Bliss excess: -0.053
[5]
  Bliss excess: -0.0407
FU97 (Gastric Carcinoma)
  Bliss excess: -0.148
[6]
  Bliss excess: -0.0308
[7]
  Bliss excess: -0.0311
8-MG-BA (Glioblastoma)
  Bliss excess: -0.0163
IGR-37 (Melanoma)
  Bliss excess: -0.0132
[8]
  Bliss excess: -0.0638
[9]
  Bliss excess: -0.0208
[10]
  Bliss excess: -0.0576
[11]
  Bliss excess: -0.0826
[12]
  Bliss excess: 0.0151
[13]
  Bliss excess: -0.0434
[14]
  Bliss excess: -0.0137
GI-ME-N (Neuroblastoma)
  Bliss excess: -0.0434
Hs-445 (Non-Cancerous)
  Bliss excess: 0.0156

## CCN(CCO)CCCOc1ccc2c(Nc3cc(CC(=O)Nc4cccc(F)c4)[nH]n3)ncnc2c1 [AZD2811] + C=CCn1c(=O)c2cnc(Nc3ccc(N4CCN(C)CC4)cc3)nc2n1-c1cccc(C(C)(C)O)n1 [AZD1775] (first compound max 1 µM, partner max 1 µM)
[1]
  Bliss excess: -0.0231
[2]
  Bliss excess: -0.0967
[3]
  Bliss excess: -0.0349
[4]
  Bliss excess: -0.021
NCI-H2591 (Mesothelioma)
  Bliss excess: 0.0107
[5]
  Bliss excess: -0.0589
FU97 (Gastric Carcinoma)
  Bliss excess: -0.0289
[6]
  Bliss excess: 0.064
[7]
  Bliss excess: -0.0295
8-MG-BA (Glioblastoma)
  Bliss excess: 0.0299
IGR-37 (Melanoma)
  Bliss excess: -0.023
[8]
  Bliss excess: -0.0082
[9]
  Bliss excess: -0.0269
[10]
  Bliss excess: -0.0462
[11]
  Bliss excess: 0.018
[12]
  Bliss excess: 0.0157
[13]
  Bliss excess: -0.0038
[14]
  Bliss excess: 0.0099
GI-ME-N (Neuroblastoma)
  Bliss excess: -0.0112
Hs-445 (Non-Cancerous)
  Bliss excess: -0.004

## CCN(CCO)CCCOc1ccc2c(Nc3cc(CC(=O)Nc4cccc(F)c4)[nH]n3)ncnc2c1 [AZD2811] + C[C@@H]1COCCN1C2=NC(=NC(=C2)C3(CC3)[S@](=N)(=O)C)C4=C5C=CNC5=NC=C4 [AZD6738] (first compound max 1 µM, 7x7, partner max 10 µM)
[1]
  Bliss excess: -0.0449
[2]
  Bliss excess: -0.0843
[3]
  Bliss excess: -0.0581
[4]
  Bliss excess: -0.0793
NCI-H2591 (Mesothelioma)
  Bliss excess: -0.0338
[5]
  Bliss excess: -0.0114
FU97 (Gastric Carcinoma)
  Bliss excess: -0.0795
[6]
  Bliss excess: -0.0174
[7]
  Bliss excess: -0.0361
8-MG-BA (Glioblastoma)
  Bliss excess: -0.0212
IGR-37 (Melanoma)
  Bliss excess: -0.0366
[8]
  Bliss excess: -0.0873
[9]
  Bliss excess: -0.0263
[10]
  Bliss excess: -0.0412
[11]
  Bliss excess: -0.0864
[12]
  Bliss excess: 0.0006
[13]
  Bliss excess: -0.0495
[14]
  Bliss excess: -0.0654
GI-ME-N (Neuroblastoma)
  Bliss excess: -0.0437
Hs-445 (Non-Cancerous)
  Bliss excess: -0.01

## CCN(CCO)CCCOc1ccc2c(Nc3cc(CC(=O)Nc4cccc(F)c4)[nH]n3)ncnc2c1 [AZD2811] + O=C(c1cc(Cc2n[nH]c(=O)c3ccccc23)ccc1F)N1CCN(C(=O)C2CC2)CC1 [Olaparib] (first compound max 1 µM, 7x7, partner max 10 µM)
[1]
  Bliss excess: -0.0261
[2]
  Bliss excess: -0.0071
[3]
  Bliss excess: 0.0267
[4]
  Bliss excess: -0.0468
NCI-H2591 (Mesothelioma)
  Bliss excess: -0.0332
[5]
  Bliss excess: -0.022
FU97 (Gastric Carcinoma)
  Bliss excess: -0.0269
[6]
  Bliss excess: 0.0271
[7]
  Bliss excess: 0.0022
8-MG-BA (Glioblastoma)
  Bliss excess: 0.0327
IGR-37 (Melanoma)
  Bliss excess: -0.0353
[8]
  Bliss excess: -0.0557
[9]
  Bliss excess: -0.0023
[10]
  Bliss excess: -0.0222
[11]
  Bliss excess: -0.0103
[12]
  Bliss excess: 0.0951
[13]
  Bliss excess: 0.0145
[14]
  Bliss excess: 0.007
GI-ME-N (Neuroblastoma)
  Bliss excess: -0.0233
Hs-445 (Non-Cancerous)
  Bliss excess: 0.0459

## CN(CCO)CC[C@H](CSc1ccccc1)Nc1ccc(S(=O)(=O)NC(=O)c2ccc(N3CCC([C@@H](O)c4ccccc4-c4ccc(Cl)cc4)CC3)cc2)cc1S(=O)(=O)C(F)(F)F [AZD4320] + C1CN(CCC1(C(=O)N[C@@H](CCO)C2=CC=C(C=C2)Cl)N)C3=NC=NC4=C3C=CN4 [Capivasertib] (first compound max 1 µM, 7x7, partner max 3 µM)
[1]
  Bliss excess: -0.0547
[2]
  Bliss excess: -0.0103
[3]
  Bliss excess: 0.0401
[4]
  Bliss excess: -0.0338
NCI-H2591 (Mesothelioma)
  Bliss excess: -0.0455
[5]
  Bliss excess: 0.0311
FU97 (Gastric Carcinoma)
  Bliss excess: 0.0069
[6]
  Bliss excess: -0.0482
[7]
  Bliss excess: -0.0582
8-MG-BA (Glioblastoma)
  Bliss excess: -0.0071
IGR-37 (Melanoma)
  Bliss excess: -0.0389
[8]
  Bliss excess: -0.027
[9]
  Bliss excess: 0.0377
[10]
  Bliss excess: -0.0534
[11]
  Bliss excess: -0.0469
[12]
  Bliss excess: -0.0332
[13]
  Bliss excess: -0.0187
[14]
  Bliss excess: -0.0456
GI-ME-N (Neuroblastoma)
  Bliss excess: -0.0729
Hs-445 (Non-Cancerous)
  Bliss excess: 0.0455

## CN(CCO)CC[C@H](CSc1ccccc1)Nc1ccc(S(=O)(=O)NC(=O)c2ccc(N3CCC([C@@H](O)c4ccccc4-c4ccc(Cl)cc4)CC3)cc2)cc1S(=O)(=O)C(F)(F)F [AZD4320] + C=CCn1c(=O)c2cnc(Nc3ccc(N4CCN(C)CC4)cc3)nc2n1-c1cccc(C(C)(C)O)n1 [AZD1775] (first compound max 1 µM, partner max 1 µM)
[1]
  Bliss excess: -0.0254
[2]
  Bliss excess: 0.0803
[3]
  Bliss excess: 0.0569
[4]
  Bliss excess: -0.0174
NCI-H2591 (Mesothelioma)
  Bliss excess: -0.0701
[5]
  Bliss excess: -0.0534
FU97 (Gastric Carcinoma)
  Bliss excess: -0.0315
[6]
  Bliss excess: 0.0362
[7]
  Bliss excess: -0.0244
8-MG-BA (Glioblastoma)
  Bliss excess: -0.0417
IGR-37 (Melanoma)
  Bliss excess: 0.0354
[8]
  Bliss excess: 0.0423
[9]
  Bliss excess: 0.0823
[10]
  Bliss excess: 0.0665
[11]
  Bliss excess: -0.0196
[12]
  Bliss excess: -0.0116
[13]
  Bliss excess: -0.0077
[14]
  Bliss excess: -0.0047
GI-ME-N (Neuroblastoma)
  Bliss excess: -0.0524
Hs-445 (Non-Cancerous)
  Bliss excess: 0.165

Source: the supplement of paper PMC11061612
